Test results from US10647719B2, “Bicyclic compounds as dual ATX/CA inhibitors” (Hoffmann-La Roche Inc., priority 2015, dated 2020).
Like-named read-outs stand apart in the source and are kept apart here.

Assays:
[1] = biological target: Human carbonic anhydrase II (hCA-II) (Homo sapiens (Human), UniProt P00918); test: Human carbonic anhydrase-II inhibition assay (absorbance, 4-nitrophenyl acetate substrate); assay type: biochemical
Procedure: Human Carbonic Anhydrase-II Inhibition Assay
Human carbonic anhydrase II (hCA-II) inhibition was measured by an absorbance method using 4-nitrophenyl acetate (4-NPA) as its substrate. 4-NPA can be catalyzed by active hCA II via a zinc-hydroxide mechanism. The nitrophenolate in the products can be ionized to generate a bright yellow anion with high absorbance at 348 to 400 nm, as reported in the literature (Armstrong et al., J. Biol. Chem. 1966, 241, 5137-5149). OD340 nm was chosen for detecting hCA II substrate conversion.
(§1) Assay working solutions were made as follows:
Assay buffer: 50 mM MOPS, 33 mM Na2SO4, 1 mM EDTA, 0.5 mg/ml BSA, pH 7.5;
Enzyme solution: hCA-II (human, full length) stock solution (1.0 mg/mL in 20 mM HEPES, 50 mM NaCl, pH 7.4), diluted to 2133× final concentration in assay buffer;
4-NPA substrate solution: 4-NPA substrate stock solution (250 mM in DMSO, stored at −20° C.), diluted to 50× final concentration in deionized water.
Test compounds (10 mM stock in DMSO, 100 μL) were obtained in […] sample plates (Corning Costar #3655) and diluted to 0.5 mM. Column-wise serial dilutions were made by transferring 20 μL compound solutions to the next column, from column 3 up to 22. After this, 1.2 μL were transferred to 384 well assay plates (Corning Costar #3701). Then 30 μL of 16 nM hCA II solution was added (8 nM final concentration), mixed five times. 30 μL of 4-NPA substrate solution was added (2.5 mM final concentration), mixed five times. Absorbance at 340 nm was then measured immediately as time zero. The assay plates were incubated at room temperature for 1 hour and then measured as time 1 hour (Perkin Elmer EnVision 2103; Filter: Photometric 340; Light intensity 60%; Number of flashes: 10). IC50 values and Ki values were calculated from these readouts.

human ATX = human ATX (Homo sapiens (Human), UniProt Q13822); test: Human ATX enzyme inhibition assay (fluorescence quenching, MR121 substrate); assay type: biochemical
Procedure: Human ATX Enzyme Inhibition Assay
ATX inhibition was measured by a fluorescence quenching assay using a specifically labeled substrate analogue (MR121 substrate). To obtain this MR121 substrate, BOC and TBS protected 6-amino-hexanoic acid (R)-3-({2-[3-(2-{2-[2-(2-amino-ethoxy)-ethoxy]-ethoxy}-ethoxy)-propionylamino]-ethoxy}-hydroxy-phosphoryloxy)-2-hydroxy-propyl ester (Ferguson et al., Org Lett 2006, 8 (10), 2023) was labeled with MR121 fluorophore (CAS 185308-24-1, 1-(3-carboxypropyl)-11-ethyl-1,2,3,4,8,9,10,11-octahydro-dipyrido[3,2-b:2′,3′-i]phenoxazin-13-ium) on the free amine of the ethanolamine side and then, after deprotection, subsequently with tryptophan on the side of the aminohexanoic acid.
as §1
Assay buffer (50 mM Tris-HCl, 140 mM NaCl, 5 mM KCl, 1 mM CaCl2, 1 mM MgCl2, 0.01% Triton-X-100, pH 8.0;
ATX solution: ATX (human His-tagged) stock solution (1.08 mg/mL in 20 mM bicine, pH 8.5, 0.15 M NaCl, 10% glycerol, 0.3% CHAPS, 0.02% NaN3), diluted to 1.4-2.5× final concentration in assay buffer;
MR121 substrate solution: MR121 substrate stock solution (800 μM MR121 substrate in DMSO), diluted to 2-5× final concentration in assay buffer.
Test compounds (10 mM stock in DMSO, 8 μL) were obtained in 384 well sample plates (Corning Costar #3655) and diluted with 8 μL DMSO. Row-wise serial dilutions were made by transferring 8 μL cpd solution to the next row up to row O. The compound and control solutions were mixed five times and 2 μL were transferred to 384 well assay plates (Corning Costar #3702). Then, 15 μL of 41.7 nM ATX solution was added (30 nM final concentration), mixed five times and then incubated for 15 minutes at 30° C. 10 μL of MR121 substrate solution was added (1 μM final concentration), mixed 30 times and then incubated for 15 minutes at 30° C.

[2] = hCA II 8 nM, 4-NPA 2.5 mM, absorbance 340 nm, room temperature 1 hour, read-out: CA-II IC50
[3] = human His-tagged ATX 30 nM, MR121 substrate 1 μM, 30° C., read-out: ATX IC50

| SMILES | IC50 [1, 2] [nM] | IC50 (human ATX; [3]) [nM] | IC50 [1] [nM] | IC50 (human ATX) [nM] |
| --- | --- | --- | --- | --- |
| CC(C)(C)C(=O)Nc1cc(C(F)(F)F)cnc1COC(=O)N1CC2=C(C1)CN(C(=O)c1ccc(S(N)(=O)=O)cc1)C2 [Example 1.00, [3-(2,2-Dimethylpropanoylamino)-5-(trifluoromethyl)pyridin-2-yl]methyl 2-(4-sulfamoylbenzoyl)-1,3,4,6-tetrahydropyrrolo[3,4-c]pyrrole-5-carboxylate] | 14 | 6 |  |  |
| CC(C)(C)C(=O)Nc1cc(C(F)(F)F)cnc1COC(=O)N1CC2=C(C1)CN(C(=O)c1cc(F)c(S(N)(=O)=O)cc1F)C2 [Example 1.01, [3-(2,2-dimethylpropanoylamino)-5-(trifluoromethyl)pyridin-2-yl]methyl 2-(2,5-difluoro-4-sulfamoylbenzoyl)-1,3,4,6-tetrahydropyrrolo[3,4-c]pyrrole-5-carboxylate] | 7 | 10 |  |  |
| CC(C)(C)C(=O)Nc1cc(C(F)(F)F)cnc1COC(=O)N1CC2=C(C1)CN(C(=O)c1ccc(S(N)(=O)=O)c(Cl)c1)C2 [Example 1.02, [3-(2,2-dimethylpropanoylamino)-5-(trifluoromethyl)pyridin-2-yl]methyl 2-(3-chloro-4-sulfamoylbenzoyl)-1,3,4,6-tetrahydropyrrolo[3,4-c]pyrrole-5-carboxylate] | 10 | 5 |  |  |
| CC(C)(C)C(=O)Nc1cc(C(F)(F)F)cnc1COC(=O)N1CC2=C(C1)CN(C(=O)c1ccc(S(N)(=O)=O)c(F)c1)C2 [Example 1.03, [3-(2,2-dimethylpropanoylamino)-5-(trifluoromethyl)pyridin-2-yl]methyl 2-(3-fluoro-4-sulfamoylbenzoyl)-1,3,4,6-tetrahydropyrrolo[3,4-c]pyrrole-5-carboxylate] | 9 | 5 |  |  |
| CC(C)(C)C(=O)Nc1cc(C(F)(F)F)cnc1COC(=O)N1CC2=C(C1)CN(C(=O)c1ccc(S(N)(=O)=O)cc1F)C2 [Example 1.04, [3-(2,2-dimethylpropanoylamino)-5-(trifluoromethyl)pyridin-2-yl]methyl 2-(2-fluoro-4-sulfamoylbenzoyl)-1,3,4,6-tetrahydropyrrolo[3,4-c]pyrrole-5-carboxylate] | 5 | 4 |  |  |
| CC(C)(C)C(=O)Nc1cc(C(F)(F)F)cnc1COC(=O)N1CC2=C(C1)CN(C(=O)c1ccc(S(N)(=O)=O)cn1)C2 [Example 1.05, [3-(2,2-dimethylpropanoylamino)-5-(trifluoromethyl)pyridin-2-yl]methyl 2-(5-sulfamoylpyridine-2-carbonyl)-1,3,4,6-tetrahydropyrrolo[3,4-c]pyrrole-5-carboxylate] | 11 | 7 |  |  |
| NS(=O)(=O)c1ccc(C(=O)N2CC3=C(CN(C(=O)OCc4ccc(OC(F)(F)F)cc4)C3)C2)cc1 [Example 1.06, 4-(trifluoromethoxy)benzyl 5-(4-sulfamoylbenzoyl)-3,4,5,6-tetrahydropyrrolo[3,4-c]pyrrole-2(1H)-carboxylate] |  |  | 10 | 5 |
| NS(=O)(=O)c1ccc(C(=O)N2CC3=C(CN(C(=O)c4cc(OCC5CCOCC5)nc(C5CC5)c4)C3)C2)nc1 [Example 1.07, 6-[5-[2-cyclopropyl-6-(oxan-4-ylmethoxy)pyridine-4-carbonyl]-1,3,4,6-tetrahydropyrrolo[3,4-c]pyrrole-2-carbonyl]pyridine-3-sulfonamide] | 18 | 12 |  |  |
| NS(=O)(=O)c1ccc(C(=O)N2CC3=C(CN(C(=O)c4cc(OCC5CCOCC5)nc(C5CC5)c4)C3)C2)c(F)c1 [Example 1.08, 4-[5-[2-cyclopropyl-6-(oxan-4-ylmethoxy)pyridine-4-carbonyl]-1,3,4,6-tetrahydropyrrolo[3,4-c]pyrrole-2-carbonyl]-3-fluorobenzenesulfonamide] | 6 | 8 |  |  |
| CC(C)(C)C(=O)Nc1cc(C(F)(F)F)cnc1COC(=O)N1CC2=C(C1)CN(C(=O)c1ccc(S(N)(=O)=O)c(F)c1F)C2 [Example 1.09, [3-(2,2-dimethylpropanoylamino)-5-(trifluoromethyl)pyridin-2-yl]methyl 2-(2,3-difluoro-4-sulfamoylbenzoyl)-1,3,4,6-tetrahydropyrrolo[3,4-c]pyrrole-5-carboxylate] | 10 | 27 |  |  |
| Cc1nnn(Cc2cc(C(F)(F)F)ccc2CCC(=O)N2CC3=C(C2)CN(C(=O)c2ccc(S(N)(=O)=O)cc2F)C3)n1 [Example 1.10, 3-fluoro-4-(5-(3-(2-((5-methyl-2H-tetrazol-2-yl)methyl)-4-(trifluoromethyl)phenyl)propanoyl)-1,2,3,4,5,6-hexahydropyrrolo[3,4-c]pyrrole-2-carbonyl)benzenesulfonamide] | 19 | 8 |  |  |
| CC(C)(C)C(=O)Nc1cc(C(F)(F)F)cnc1COC(=O)N1CC2=C(C1)CN(C(=O)c1c(F)cc(S(N)(=O)=O)cc1F)C2 [Example 1.11, [3-(2,2-dimethylpropanoylamino)-5-(trifluoromethyl)pyridin-2-yl]methyl 2-(2,6-difluoro-4-sulfamoylbenzoyl)-1,3,4,6-tetrahydropyrrolo[3,4-c]pyrrole-5-carboxylate] | 27 | 9 |  |  |
| CC(C)(C)C(=O)Nc1cc(Cl)cnc1COC(=O)N1CC2=C(C1)CN(C(=O)c1ccc(S(N)(=O)=O)cc1F)C2 [Example 1.12, [5-chloro-3-(2,2-dimethylpropanoylamino)pyridin-2-yl]methyl 2-(2-fluoro-4-sulfamoylbenzoyl)-1,3,4,6-tetrahydropyrrolo[3,4-c]pyrrole-5-carboxylate] | 12.9 | 6 |  |  |
| CC(C)(C)C(=O)Nc1cc(C#N)cnc1COC(=O)N1CC2=C(C1)CN(C(=O)c1ccc(S(N)(=O)=O)cc1F)C2 [Example 1.24, [5-cyano-3-(2,2-dimethylpropanoylamino)pyridin-2-yl]methyl 2-(2-fluoro-4-sulfamoylbenzoyl)-1,3,4,6-tetrahydropyrrolo[3,4-c]pyrrole-5-carboxylate] | 7 |  |  |  |
| CC(C)(C)C(=O)Nc1cc(C#N)cnc1COC(=O)N1CC2=C(C1)CN(C(=O)c1c(F)cc(S(N)(=O)=O)cc1F)C2 [Example 1.25, [5-cyano-3-(2,2-dimethylpropanoylamino)pyridin-2-yl]methyl 2-(2,6-difluoro-4-sulfamoylbenzoyl)-1,3,4,6-tetrahydropyrrolo[3,4-c]pyrrole-5-carboxylate] | 8 |  |  |  |
| CC(C)(C)C(=O)Nc1cc(C#N)cnc1COC(=O)N1CC2=C(C1)CN(C(=O)c1ccc(S(N)(=O)=O)c(F)c1F)C2 [Example 1.26, [5-cyano-3-(2,2-dimethylpropanoylamino)pyridin-2-yl]methyl 2-(2,3-difluoro-4-sulfamoylbenzoyl)-1,3,4,6-tetrahydropyrrolo[3,4-c]pyrrole-5-carboxylate] |  |  |  | 3 |
| CC(C)(C)C(=O)Nc1cc(C(F)(F)F)cnc1COC(=O)N1CCC2=C(CCN(C(=O)c3ccc(S(N)(=O)=O)cc3F)C2)C1 [Example 1.28, [3-(2,2-dimethylpropanoylamino)-5-(trifluoromethyl)pyridin-2-yl]methyl 6-(2-fluoro-4-sulfamoylbenzoyl)-1,3,4,5,7,8-hexahydro-2,6-naphthyridine-2-carboxylate] |  | 1 |  |  |
